Source: patent US11059832B2, “HPK1 inhibitors and methods of using same” (University Health Network, priority 2015, dated 2021)

Target: T1, human HPK1 (MAP4K1) (Homo sapiens, UniProt Q92918)
T1 construct: human HPK1 (aa 1-346); purchased Invitrogen PV6355
T1 sequence (Q92918 1-346): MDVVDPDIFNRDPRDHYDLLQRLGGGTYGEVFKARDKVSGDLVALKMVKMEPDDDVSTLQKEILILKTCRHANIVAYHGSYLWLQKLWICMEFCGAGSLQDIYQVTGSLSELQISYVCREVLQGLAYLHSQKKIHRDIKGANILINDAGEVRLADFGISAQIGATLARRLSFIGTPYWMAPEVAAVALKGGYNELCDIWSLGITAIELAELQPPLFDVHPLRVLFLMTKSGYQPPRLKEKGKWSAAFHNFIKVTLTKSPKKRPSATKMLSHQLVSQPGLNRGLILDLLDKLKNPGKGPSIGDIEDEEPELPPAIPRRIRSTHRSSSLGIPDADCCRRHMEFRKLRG
Assay: HPK1 inhibition assay (indirect ELISA)
Format: biochemical
Conditions: GST-HPK1 0.6 nM, 12 μM ATP; read-out: IC50 Range HPK1
Method in brief: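 GST-tagged human HPK1 (aa 1-346, 0.6 nM) phosphorylated MBP-coated wells with 12 μM ATP in MOPS pH 7.2/Mg2+ buffer for 30 min after 15-min compound preincubation; phospho-Thr detected by antibody ELISA with TMB, 450 nm. Tested at 10 μM or 10-point titration (typically 50-0.1 μM); IC50 by 4-parameter logistic fit.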

In the case of `CN1CCN(c2ccc3nc(-c4c(N)c5ccsc5[nH]c4=O)[nH]c3c2)CC1` [Example A1, 4-amino-5-(6-(4-methylpiperazin-1-yl)-1H-benzo[d]imidazol-2-yl)thieno[2,3-b]pyridin-6(7H)-one], the IC50 is reported as ≤ 50 nM.
